In US8536175B2, “Quinoxaline carboxamide derivatives as protein tyrosine kinase inhibitors” (Novartis AG, priority 2008, dated 2013):

target: FGFR3 kinase (Homo sapiens (Human), UniProt P22607, K650E); assay: FGFR3 kinase inhibition (protein kinase activity assays); assay type: biochemical; conditions: average of 2 independent measurements; * single value; read-out: FGFR3 IC50
Experimental: generic assay set-up: Enzyme activities were measured by mixing 10 μL of a 3-fold concentrated compound solution or control with 10 μL of the corresponding substrate mixture (peptidic substrate, ATP and [γ^33P]ATP). The reactions were initiated by addition of 10 μL of a 3-fold concentrated solution of the respective enzyme in assay buffer. […] Filter binding (FB) method: FB assays were carried out in 96-well plates at room temperature for 10 min in a finial volume of 30 μL including the components as indicated in section above. […] After spotting, vacuum was connected and each well rinsed with 200 μL 0.5% H3PO4. Free membranes were removed and washed 4 times on a shaker with 1% H3PO4 and once with ethanol. Membranes were dried and overlaid with addition of 10 μL/well of a scintillation fluid. The plates were eventually sealed and counted in a microplate scintillation counter. IC50 values were calculated by linear regression analysis of the percentage inhibition of the compound.
generic assay set-up: The assay has been run at room temperature on a liquid handling robot. […] After an incubation time of 45 min in the dark, the plates were transferred into a fluorescence reader for counting.
Compounds of formula (I) are assayed to measure their capacity to inhibit FGFR3 kinase as described above.

Chain of FGFR3 kinase (P22607 23-806 K650E): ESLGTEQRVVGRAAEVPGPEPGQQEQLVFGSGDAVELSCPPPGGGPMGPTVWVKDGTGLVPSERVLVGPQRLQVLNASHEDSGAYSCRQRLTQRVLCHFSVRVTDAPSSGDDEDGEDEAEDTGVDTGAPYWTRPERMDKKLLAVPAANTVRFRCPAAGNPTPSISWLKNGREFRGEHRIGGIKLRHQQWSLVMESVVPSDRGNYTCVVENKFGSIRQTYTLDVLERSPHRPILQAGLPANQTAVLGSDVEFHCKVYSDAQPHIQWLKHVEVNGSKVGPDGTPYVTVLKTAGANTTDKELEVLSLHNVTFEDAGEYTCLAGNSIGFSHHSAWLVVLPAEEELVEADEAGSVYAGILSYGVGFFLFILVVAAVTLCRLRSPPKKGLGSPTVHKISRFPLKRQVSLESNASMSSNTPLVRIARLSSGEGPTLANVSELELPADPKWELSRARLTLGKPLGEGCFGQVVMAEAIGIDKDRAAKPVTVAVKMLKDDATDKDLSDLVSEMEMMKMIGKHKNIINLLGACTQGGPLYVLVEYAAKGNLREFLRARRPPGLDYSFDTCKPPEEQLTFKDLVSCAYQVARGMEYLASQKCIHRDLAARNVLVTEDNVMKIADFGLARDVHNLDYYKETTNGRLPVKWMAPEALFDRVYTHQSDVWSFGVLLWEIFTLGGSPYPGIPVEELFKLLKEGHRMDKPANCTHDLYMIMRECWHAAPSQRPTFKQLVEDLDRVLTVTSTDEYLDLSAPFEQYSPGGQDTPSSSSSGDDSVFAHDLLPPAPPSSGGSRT

IC50	Structure (SMILES)
> 10000 nM	COc1cc(OC)c(Cl)c(-c2ccc(C(=O)Nc3ccc(C(N)=O)cc3)c3nccnc23)c1Cl [Example 3, 8-(2,6-Dichloro-3,5-dimethoxy-phenyl)-quinoxaline-5-carboxylic acid (4-carbamoyl-phenyl)-amide]
> 10000 nM	Cc1cccc(C)c1-c1ccc(C(=O)Nc2nc(CN3CCN(C)CC3)c[nH]2)c2nccnc12 [Example 77, 8-(2,6-Dimethyl-phenyl)-quinoxaline-5-carboxylic acid [4-(4-methyl-piperazin-1-ylmethyl)-1H-imidazol-2-yl]-amide]
> 10000 nM	COc1cc(OC)c(Cl)c(-c2ccc(C(=O)Nc3nnc[nH]3)c3nccnc23)c1Cl [Example 17, 8-(2,6-Dichloro-3,5-dimethoxy-phenyl)-quinoxaline-5-carboxylic acid (4H-[1,2,4]triazol-3-yl)-amide]
> 10000 nM	Cc1cscc1-c1ccc(C(=O)Nc2nc(CN3CCN(C)CC3)c[nH]2)c2nccnc12 [Example 69, 8-(4-Methyl-thiophen-3-yl)-quinoxaline-5-carboxylic acid [4-(4-methyl-piperazin-1-ylmethyl)-1H-imidazol-2-yl]amide]

same assay, conditions: read-out: rating (FGFR3 kinase IC50)

Structure (SMILES)	IC50
COc1cc(OC)cc(-c2ccc(C(=O)Nc3ccc(CN4CCNCC4)cn3)c3nccnc23)c1 [Example 117]	500 to 50000 nM
CCN1CCN(c2ccc(NC(=O)c3ccc(-c4c(C)cccc4C)c4nccnc34)cc2)CC1 [Example 72, 8-(2,6-Dimethyl-phenyl)-quinoxaline-5-carboxylic acid [4-(4-ethyl-piperazin-1-yl)-phenyl]-amide]	500 to 50000 nM
COc1cc(OC)c(Cl)c(-c2ccc(C(=O)Nc3ccn(CCN(C)C)c3)c3nccnc23)c1Cl [Example 121, 8-(2,6-Dichloro-3,5-dimethoxy-phenyl)-quinoxaline-5-carboxylic acid [1-(2-dimethylamino-ethyl)-1H-pyrrol-3-yl]-amide]	500 to 50000 nM
COc1cc(OC)c(Cl)c(-c2ccc(C(=O)Nc3nnc[nH]3)c3nccnc23)c1Cl [Example 163, 8-(2,6-Dichloro-3,5-dimethoxy-phenyl)-quinoxaline-5-carboxylic acid (4H-[1,2,4]triazol-3-yl)-amide]	500 to 50000 nM
COc1cc(OC)c(Cl)c(-c2ccc(C(=O)Nc3cccnc3)c3ncc(N(C)CCN(C)C)nc23)c1Cl [Example 87, 8-(2,6-Dichloro-3,5-dimethoxy-phenyl)-2-[(2-dimethylamino-ethyl)-methylamino]-quinoxaline-5-carboxylic acid pyridin-3-ylamide]	500 to 50000 nM
CCN1CCN(Cc2ccc(NC(=O)c3ccc(-c4cc(OC)cc(OC)c4)c4nccnc34)nc2)CC1 [Example 115, 8-(3,5-Dimethoxy-phenyl)-quinoxaline-5-carboxylic acid [5-(4-ethyl-piperazin-1-ylmethyl)-pyridin-2-yl]-amide]	500 to 50000 nM
COc1cc(OC)c(Cl)c(-c2ccc(C(=O)Nc3ccc(O)cc3)c3nccnc23)c1Cl [Example 7, 8-(2,6-Dichloro-3,5-dimethoxy-phenyl)-quinoxaline-5-carboxylic acid (4-hydroxyphenyl)-amide]	500 to 50000 nM
COc1cc(OC)c(Cl)c(-c2ccc(C(=O)Nc3nccn3Cc3ccccc3)c3ncccc23)c1Cl [Example 160, 5-(2,6-Dichloro-3,5-dimethoxy-phenyl)-quinoline-8-carboxylic acid (1-benzyl-1H-imidazol-2-yl)-amide]	500 to 50000 nM
COc1ccc(Cl)c(-c2ccc(C(=O)Nc3ccc(OCCN(C)C)cc3)c3nccnc23)c1 [Example 65, 8-(2-Chloro-5-methoxy-phenyl)-quinoxaline-5-carboxylic acid [4-(2-dimethylamino-ethoxy)-phenyl]-amide]	500 to 50000 nM
COc1cc(OC)c(F)c(-c2ccc(C(=O)Nc3cccnc3)c3nccnc23)c1F [Example 90, 8-(2,6-Difluoro-3,5-dimethoxy-phenyl)-quinoxaline-5-carboxylic acid pyridin-3-ylamide]	100 to 500 nM
COc1cc(OC)c(Cl)c(-c2ccc(C(=O)Nc3ccc(CN4CCNCC4)nc3)c3ncccc23)c1Cl [Example 171, 5-(2,6-Dichloro-3,5-dimethoxy-phenyl)-quinoline-8-carboxylic acid (6-piperazin-1-ylmethyl-pyridin-3-yl)-amide]	500 to 50000 nM

Results, then the compound that gave them:

IC50	Structure (SMILES)
< 100 nM	COc1cc(OC)c(Cl)c(-c2ccc(C(=O)Nc3ccc(N4CCN(C(C)C)CC4)nc3)c3nccnc23)c1Cl [Example 33, 8-(2,6-Dichloro-3,5-dimethoxy-phenyl)-quinoxaline-5-carboxylic acid [6-(4-isopropyl-piperazin-1-yl)-pyridin-3-yl]-amide]
100 to 500 nM	CCN1CCN(Cc2ccc(NC(=O)c3ccc(-c4c(Cl)c(OC)cc(OC)c4Cl)c4cccnc34)cn2)CC1 [Example 169, 5-(2,6-Dichloro-3,5-dimethoxy-phenyl)-quinoline-8-carboxylic acid [6-(4-ethyl-piperazin-1-ylmethyl)-pyridin-3-yl]-amide]
100 to 500 nM	CCN1CCN(Cc2ccc(NC(=O)c3ccc(-c4c(Cl)c(OC)cc(OC)c4Cl)c4cccnc34)nc2)CC1 [Example 165, 5-(2,6-Dichloro-3,5-dimethoxy-phenyl)-quinoline-8-carboxylic acid [5-(4-ethyl-piperazin-1-ylmethyl)-pyridin-2-yl]-amide]
< 100 nM	COc1cc(OC)c(Cl)c(-c2ccc(C(=O)Nc3ccc(N(C)C4CCN(C)CC4)nc3)c3nccnc23)c1Cl [Example 37, 8-(2,6-Dichloro-3,5-dimethoxy-phenyl)-quinoxaline-5-carboxylic acid {6-[methyl-(1-methyl-piperidin-4-yl)-amino]-pyridin-3-yl}-amide]
< 100 nM	CCN1CCN(c2ccc(NC(=O)c3ccc(-c4c(Cl)c(OC)cc(OC)c4Cl)c4nccnc34)cc2)CC1 [Example 1, 8-(2,6-Dichloro-3,5-dimethoxy-phenyl)-quinoxaline-5-carboxylic acid [4-(4-ethyl-piperazin-1-yl)-phenyl]-amide]
100 to 500 nM	COc1cc(OC)c(Cl)c(-c2ccc(C(=O)Nc3ccc(CN4CCS(=O)(=O)CC4)cn3)c3nccnc23)c1Cl [Example 104, 8-(2,6-Dichloro-3,5-dimethoxy-phenyl)-quinoxaline-5-carboxylic acid [5-(1,1-dioxothiomorpholin-4-ylmethyl)-pyridin-2-yl]-amide]
< 100 nM	COc1cc(OC)c(F)c(-c2ccc(C(=O)Nc3ccc(CN4CCN(C)CC4)nc3)c3nccnc23)c1F [Example 89, 8-(2,6-Difluoro-3,5-dimethoxy-phenyl)-quinoxaline-5-carboxylic acid [6-(4-methyl-piperazin-1-ylmethyl)-pyridin-3-yl]-amide]
< 100 nM	COc1cc(OC)c(F)c(-c2ccc(C(=O)Nc3ccc(CN4CCS(=O)(=O)CC4)cn3)c3nccnc23)c1F [Example 140, 8-(2,6-Difluoro-3,5-dimethoxy-phenyl)-quinoxaline-5-carboxylic acid [5-(1,1-dioxo-thiomorpholin-4-ylmethyl)-pyridin-2-yl]-amide]
< 100 nM	CCN1CCN(c2ccc(NC(=O)c3ccc(-c4c(Cl)c(OC)cc(OC)c4Cl)c4cccnc34)cc2)CC1 [Example 159, 5-(2,6-Dichloro-3,5-dimethoxy-phenyl)-quinoline-8-carboxylic acid [4-(4-ethyl-piperazin-1-yl)-phenyl]-amide]
< 100 nM	CCN1CCN(Cc2ccc(NC(=O)c3ccc(-c4c(F)c(OC)cc(OC)c4F)c4nccnc34)cn2)CC1 [Example 88, 8-(2,6-Difluoro-3,5-dimethoxy-phenyl)-quinoxaline-5-carboxylic acid [6-(4-ethyl-piperazin-1-ylmethyl)-pyridin-3-yl]-amide]
< 100 nM	COc1cc(OC)c(Cl)c(-c2ccc(C(=O)Nc3ccc(CN(C)CCN(C)C)cn3)c3nccnc23)c1Cl [Example 81, 8-(2,6-Dichloro-3,5-dimethoxy-phenyl)-quinoxaline-5-carboxylic acid (5-{[(2-dimethylamino-ethyl)-methyl-amino]-methyl}-pyridin-2-yl)-amide]
100 to 500 nM	COc1cc(OC)c(Cl)c(-c2ccc(C(=O)Nc3ccc(CN4CCN(C)CC4)nc3)c3ncccc23)c1Cl [Example 168, 5-(2,6-Dichloro-3,5-dimethoxy-phenyl)-quinoline-8-carboxylic acid [6-(4-methyl-piperazin-1-ylmethyl)-pyridin-3-yl]amide]
< 100 nM	COc1cc(OC)c(Cl)c(-c2ccc(C(=O)Nc3ccc(OCCN(C)C)cc3)c3nccnc23)c1Cl [Example 5, 8-(2,6-Dichloro-3,5-dimethoxy-phenyl)-quinoxaline-5-carboxylic acid [4-(2-dimethylamino-ethoxy)-phenyl]-amide]
< 100 nM	COc1cc(OC)c(F)c(-c2ccc(C(=O)Nc3nc(CN4CCN(C)CC4)c[nH]3)c3nccnc23)c1F [Example 141, 8-(2,6-Difluoro-3,5-dimethoxy-phenyl)-quinoxaline-5-carboxylic acid [4-(4-methyl-piperazin-1-ylmethyl)-1H-imidazol-2-yl]-amide]
< 100 nM	COc1cc(OC)c(Cl)c(-c2ccc(C(=O)Nc3ncc[nH]3)c3ncccc23)c1Cl [Example 161, 5-(2,6-Dichloro-3,5-dimethoxy-phenyl)-quinoline-8-carboxylic acid (1H-imidazol-2-yl)-amide]
